# Source: ChEMBL document CHEMBL5390221, “Synthesis and biological activity assay of novel camptothecin-peptidic conjugates based on PEPT1” (Bioorg Med Chem Lett, 2023)
# Tests used:
# [1] = test system: HepG2; experiment: Cytotoxicity against human HepG2 cells assessed as inhibition of cell growth; type: functional, cell-based
# [2] = molecular target: T1, Solute carrier family 15 member 1 (Homo sapiens) (UniProt P46059); experiment: Inhibition of PEPT1 (unknown origin) expressed in HEK293T cells assessed as inhibition of PEPT1 mediated Gly-Sar uptake using Gly-Sar as substrate at 20 uM relative to control; type: cell-based
# T1 sequence (whole entry): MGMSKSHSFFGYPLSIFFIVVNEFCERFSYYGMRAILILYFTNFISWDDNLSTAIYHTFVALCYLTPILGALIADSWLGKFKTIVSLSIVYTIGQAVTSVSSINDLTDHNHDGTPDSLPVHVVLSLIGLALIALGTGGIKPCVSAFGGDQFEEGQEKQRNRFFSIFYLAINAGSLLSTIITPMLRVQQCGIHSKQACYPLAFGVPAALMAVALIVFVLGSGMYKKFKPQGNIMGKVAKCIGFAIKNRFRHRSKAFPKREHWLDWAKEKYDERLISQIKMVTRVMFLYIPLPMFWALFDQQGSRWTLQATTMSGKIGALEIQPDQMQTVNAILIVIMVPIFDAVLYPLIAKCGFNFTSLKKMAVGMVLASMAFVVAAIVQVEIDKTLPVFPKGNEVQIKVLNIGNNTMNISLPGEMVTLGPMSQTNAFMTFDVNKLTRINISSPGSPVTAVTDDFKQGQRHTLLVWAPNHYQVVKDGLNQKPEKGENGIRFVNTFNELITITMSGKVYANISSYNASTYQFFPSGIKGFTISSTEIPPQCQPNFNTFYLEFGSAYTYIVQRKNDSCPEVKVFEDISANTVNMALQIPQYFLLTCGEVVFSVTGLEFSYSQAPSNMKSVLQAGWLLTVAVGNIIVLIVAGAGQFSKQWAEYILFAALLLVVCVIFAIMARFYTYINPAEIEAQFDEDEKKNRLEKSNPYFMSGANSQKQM
# [3] = test system: NCI-H520; experiment: Cytotoxicity against human NCI-H520 cells assessed as inhibition of cell growth; type: functional, cell-based
# [4] = test system: BXPC-3; experiment: Cytotoxicity against human BXPC-3 cells assessed as inhibition of cell growth; type: functional, cell-based
# [5] = test system: Hep 3B2; experiment: Cytotoxicity against human Hep3B cells assessed as inhibition of cell growth; type: functional, cell-based
# [6] = test system: DU-145; experiment: Cytotoxicity against human DU-145 cells assessed as inhibition of cell growth; type: functional, cell-based
# [7] = Cytotoxicity against human MPC2 cells assessed as inhibition of cell growth; type: functional, cell-based
SMILES,IC50 [1],inhibition [2],IC50 [3],IC50 [4],IC50 [5],IC50 [6],IC50 [7]
CCCC(=O)NCC(=O)O[C@]1(CC)C(=O)OCc2c1cc1n(c2=O)Cc2cc3ccccc3nc2-1,91.8 nM,> 50%,153 nM,157 nM,1510 nM,55 nM,106 nM
CC[C@@]1(OC(=O)CNC(=O)[C@H](Cc2ccccc2)NC(C)=O)C(=O)OCc2c1cc1n(c2=O)Cc2cc3ccccc3nc2-1,60.4 nM,> 50%,56.9 nM,89.5 nM,973 nM,51.7 nM,102 nM
CC[C@H](C)[C@H](NC(C)=O)C(=O)NCC(=O)O[C@]1(CC)C(=O)OCc2c1cc1n(c2=O)Cc2cc3ccccc3nc2-1,70.4 nM,,109 nM,153 nM,847 nM,94.4 nM,197 nM
CC[C@@]1(OC(=O)CNC(=O)[C@@H](NC(=O)OC(C)(C)C)C(C)C)C(=O)OCc2c1cc1n(c2=O)Cc2cc3ccccc3nc2-1,197 nM,,78.5 nM,143 nM,872 nM,78.8 nM,204 nM
CC[C@@]1(OC(=O)CNC(=O)[C@H](CCC(N)=O)NC(=O)OC(C)(C)C)C(=O)OCc2c1cc1n(c2=O)Cc2cc3ccccc3nc2-1,144 nM,> 50%,135 nM,121 nM,999 nM,144 nM,387 nM
CCCCCC(=O)NCC(=O)O[C@]1(CC)C(=O)OCc2c1cc1n(c2=O)Cc2cc3ccccc3nc2-1,114 nM,,162 nM,105 nM,1530 nM,46.1 nM,79.4 nM
CC[C@@]1(OC(=O)CNC(=O)[C@H](CC(C)C)NC(=O)OC(C)(C)C)C(=O)OCc2c1cc1n(c2=O)Cc2cc3ccccc3nc2-1,87.6 nM,,34.8 nM,162 nM,1060 nM,44.6 nM,125 nM
CC[C@@]1(OC(=O)CNC(=O)CNC(C)=O)C(=O)OCc2c1cc1n(c2=O)Cc2cc3ccccc3nc2-1,59.1 nM,,98.6 nM,75.2 nM,767 nM,76.1 nM,153 nM
CC[C@@]1(OC(=O)CNC(=O)[C@H](C)NC(C)=O)C(=O)OCc2c1cc1n(c2=O)Cc2cc3ccccc3nc2-1,88.7 nM,,69.3 nM,108 nM,1010 nM,67.5 nM,91.4 nM
CC[C@@]1(OC(=O)CNC(=O)[C@H](CC(N)=O)NC(=O)OC(C)(C)C)C(=O)OCc2c1cc1n(c2=O)Cc2cc3ccccc3nc2-1,88.6 nM,> 50%,58 nM,84.2 nM,784 nM,89.9 nM,260 nM
CC[C@@]1(OC(=O)CNC(=O)[C@H](Cc2ccccc2)NC(=O)OC(C)(C)C)C(=O)OCc2c1cc1n(c2=O)Cc2cc3ccccc3nc2-1,74.7 nM,,54.9 nM,97.7 nM,1120 nM,74.3 nM,206 nM
CC[C@@]1(O)C(=O)OCc2c1cc1n(c2=O)Cc2cc3ccccc3nc2-1 [CAMPTOTHECIN],33.2 nM,,25 nM,62.5 nM,434 nM,33.5 nM,83.7 nM
CC[C@@]1(OC(=O)CNC(=O)[C@H](C)NC(=O)OC(C)(C)C)C(=O)OCc2c1cc1n(c2=O)Cc2cc3ccccc3nc2-1,114 nM,,67.9 nM,92.8 nM,850 nM,68.1 nM,180 nM
CC[C@@]1(OC(=O)CNC(=O)C(C)C)C(=O)OCc2c1cc1n(c2=O)Cc2cc3ccccc3nc2-1,129 nM,,87.2 nM,167 nM,969 nM,55.4 nM,97.1 nM
CC[C@H](C)[C@H](NC(=O)OC(C)(C)C)C(=O)NCC(=O)O[C@]1(CC)C(=O)OCc2c1cc1n(c2=O)Cc2cc3ccccc3nc2-1,176 nM,,58.5 nM,222 nM,1770 nM,97 nM,166 nM
CC[C@@]1(OC(=O)CNC(=O)[C@@H](NC(C)=O)C(C)C)C(=O)OCc2c1cc1n(c2=O)Cc2cc3ccccc3nc2-1,150 nM,> 50%,125 nM,54.8 nM,914 nM,87 nM,209 nM
CCC(=O)NCC(=O)O[C@]1(CC)C(=O)OCc2c1cc1n(c2=O)Cc2cc3ccccc3nc2-1,109 nM,> 50%,166 nM,123 nM,1010 nM,52.8 nM,155 nM
